Test results as given in the NIST ThermoML archive (doi:10.1016/j.jct.2007.08.002).
Numbers after ± are expanded uncertainties.

Assay: molar heat capacity at saturation pressure
Conditions: Crystal 3, Small (less than 1 g) adiabatic calorimetry

Structure (SMILES): NC12CC3CC(CC(C3)C1)C2 [tricyclo(3.3.1.1:3,7)decan-1-amine]
- molar heat capacity (5.371 K): 0.5825 ± 0.031 J/K/mol
- molar heat capacity (5.674 K): 0.6834 ± 0.033 J/K/mol
- molar heat capacity (5.933 K): 0.7778 ± 0.035 J/K/mol
- molar heat capacity (6.225 K): 0.9013 ± 0.037 J/K/mol
- molar heat capacity (6.555 K): 1.05 ± 0.039 J/K/mol
- molar heat capacity (6.892 K): 1.221 ± 0.042 J/K/mol
- molar heat capacity (7.234 K): 1.413 ± 0.046 J/K/mol
- molar heat capacity (7.582 K): 1.615 ± 0.049 J/K/mol
- molar heat capacity (7.934 K): 1.847 ± 0.053 J/K/mol
- molar heat capacity (8.29 K): 2.095 ± 0.057 J/K/mol
- molar heat capacity (8.65 K): 2.364 ± 0.061 J/K/mol
- molar heat capacity (9.012 K): 2.653 ± 0.066 J/K/mol
- molar heat capacity (9.378 K): 2.953 ± 0.07 J/K/mol
- molar heat capacity (9.748 K): 3.269 ± 0.075 J/K/mol
- molar heat capacity (10.12 K): 3.61 ± 0.08 J/K/mol
- molar heat capacity (10.59 K): 4.072 ± 0.086 J/K/mol
- molar heat capacity (11.18 K): 4.667 ± 0.095 J/K/mol
- molar heat capacity (11.76 K): 5.291 ± 0.1 J/K/mol
- molar heat capacity (12.35 K): 5.952 ± 0.11 J/K/mol
- molar heat capacity (12.95 K): 6.634 ± 0.12 J/K/mol
- molar heat capacity (13.55 K): 7.353 ± 0.13 J/K/mol
- molar heat capacity (14.16 K): 8.092 ± 0.14 J/K/mol
- molar heat capacity (14.78 K): 8.863 ± 0.15 J/K/mol
- molar heat capacity (15.5 K): 9.794 ± 0.16 J/K/mol
- molar heat capacity (16.34 K): 10.89 ± 0.17 J/K/mol
- molar heat capacity (17.18 K): 12.01 ± 0.18 J/K/mol
- molar heat capacity (18.02 K): 13.1 ± 0.19 J/K/mol
- molar heat capacity (18.87 K): 14.19 ± 0.2 J/K/mol
- molar heat capacity (19.72 K): 15.29 ± 0.21 J/K/mol
- molar heat capacity (20.86 K): 16.74 ± 0.22 J/K/mol
- molar heat capacity (22.27 K): 18.51 ± 0.22 J/K/mol
- molar heat capacity (23.71 K): 20.25 ± 0.23 J/K/mol
- molar heat capacity (25.14 K): 21.91 ± 0.24 J/K/mol
- molar heat capacity (26.57 K): 23.5 ± 0.24 J/K/mol
- molar heat capacity (28.24 K): 25.24 ± 0.24 J/K/mol
- molar heat capacity (29.96 K): 26.91 ± 0.23 J/K/mol
- molar heat capacity (31.58 K): 28.39 ± 0.24 J/K/mol
- molar heat capacity (33.36 K): 29.89 ± 0.25 J/K/mol
- molar heat capacity (35.14 K): 31.32 ± 0.26 J/K/mol
- molar heat capacity (36.93 K): 32.63 ± 0.27 J/K/mol
- molar heat capacity (38.72 K): 33.88 ± 0.27 J/K/mol
- molar heat capacity (40.51 K): 35.04 ± 0.27 J/K/mol
- molar heat capacity (42.4 K): 36.18 ± 0.28 J/K/mol
- molar heat capacity (44.38 K): 37.34 ± 0.29 J/K/mol
- molar heat capacity (46.37 K): 38.43 ± 0.29 J/K/mol
- molar heat capacity (48.36 K): 39.47 ± 0.3 J/K/mol
- molar heat capacity (50.35 K): 40.45 ± 0.3 J/K/mol
- molar heat capacity (52.35 K): 41.44 ± 0.31 J/K/mol
- molar heat capacity (54.34 K): 42.38 ± 0.32 J/K/mol
- molar heat capacity (56.34 K): 43.3 ± 0.32 J/K/mol
- molar heat capacity (58.35 K): 44.2 ± 0.32 J/K/mol
- molar heat capacity (60.36 K): 45.16 ± 0.32 J/K/mol
- molar heat capacity (62.36 K): 46.1 ± 0.33 J/K/mol
- molar heat capacity (64.37 K): 46.99 ± 0.33 J/K/mol
- molar heat capacity (66.38 K): 47.92 ± 0.34 J/K/mol
- molar heat capacity (68.39 K): 48.83 ± 0.34 J/K/mol
- molar heat capacity (70.41 K): 49.75 ± 0.35 J/K/mol
- molar heat capacity (72.42 K): 50.71 ± 0.36 J/K/mol
- molar heat capacity (74.44 K): 51.65 ± 0.36 J/K/mol
- molar heat capacity (76.46 K): 52.68 ± 0.37 J/K/mol
- molar heat capacity (78.49 K): 53.68 ± 0.37 J/K/mol
- molar heat capacity (78.62 K): 53.84 ± 0.37 J/K/mol
- molar heat capacity (80.52 K): 54.78 ± 0.37 J/K/mol
- molar heat capacity (80.69 K): 54.93 ± 0.37 J/K/mol
- molar heat capacity (82.5 K): 55.83 ± 0.38 J/K/mol
- molar heat capacity (82.55 K): 55.82 ± 0.38 J/K/mol
- molar heat capacity (84.31 K): 56.77 ± 0.38 J/K/mol
- molar heat capacity (84.59 K): 56.97 ± 0.38 J/K/mol
- molar heat capacity (86.12 K): 57.74 ± 0.39 J/K/mol
- molar heat capacity (88.91 K): 59.25 ± 0.4 J/K/mol
- molar heat capacity (91 K): 60.41 ± 0.44 J/K/mol
- molar heat capacity (92.82 K): 61.47 ± 0.45 J/K/mol
- molar heat capacity (94.65 K): 62.47 ± 0.45 J/K/mol
- molar heat capacity (96.48 K): 63.45 ± 0.46 J/K/mol
- molar heat capacity (98.3 K): 64.46 ± 0.46 J/K/mol
- molar heat capacity (100.14 K): 65.47 ± 0.47 J/K/mol
- molar heat capacity (101.97 K): 66.49 ± 0.47 J/K/mol
- molar heat capacity (103.81 K): 67.54 ± 0.47 J/K/mol
- molar heat capacity (105.65 K): 68.56 ± 0.47 J/K/mol
- molar heat capacity (107.49 K): 69.56 ± 0.48 J/K/mol
- molar heat capacity (109.33 K): 70.65 ± 0.48 J/K/mol
- molar heat capacity (111.18 K): 71.75 ± 0.49 J/K/mol
- molar heat capacity (113.03 K): 72.83 ± 0.49 J/K/mol
- molar heat capacity (114.88 K): 73.92 ± 0.5 J/K/mol
- molar heat capacity (116.73 K): 75.05 ± 0.5 J/K/mol
- molar heat capacity (118.59 K): 76.14 ± 0.51 J/K/mol
- molar heat capacity (120.45 K): 77.29 ± 0.51 J/K/mol
- molar heat capacity (122.31 K): 78.44 ± 0.52 J/K/mol
- molar heat capacity (124.17 K): 79.61 ± 0.52 J/K/mol
- molar heat capacity (126.03 K): 80.8 ± 0.52 J/K/mol
- molar heat capacity (127.9 K): 82.02 ± 0.53 J/K/mol
- molar heat capacity (129.77 K): 83.23 ± 0.5 J/K/mol
- molar heat capacity (131.64 K): 84.39 ± 0.5 J/K/mol
- molar heat capacity (133.51 K): 85.64 ± 0.58 J/K/mol
- molar heat capacity (135.38 K): 86.8 ± 0.58 J/K/mol
- molar heat capacity (137.26 K): 88.05 ± 0.58 J/K/mol
- molar heat capacity (139.13 K): 89.21 ± 0.58 J/K/mol
- molar heat capacity (141.01 K): 90.54 ± 0.58 J/K/mol
- molar heat capacity (142.89 K): 91.79 ± 0.58 J/K/mol
- molar heat capacity (144.78 K): 93.04 ± 0.58 J/K/mol
- molar heat capacity (146.66 K): 94.37 ± 0.58 J/K/mol
- molar heat capacity (148.56 K): 95.62 ± 0.58 J/K/mol
- molar heat capacity (150.44 K): 96.95 ± 0.58 J/K/mol
- molar heat capacity (150.6 K): 97.03 ± 0.58 J/K/mol
- molar heat capacity (152.33 K): 98.28 ± 0.58 J/K/mol
- molar heat capacity (153.55 K): 99.11 ± 0.58 J/K/mol
- molar heat capacity (154.22 K): 99.61 ± 0.58 J/K/mol
- molar heat capacity (156.12 K): 100.94 ± 0.58 J/K/mol
- molar heat capacity (156.34 K): 101.19 ± 0.58 J/K/mol
- molar heat capacity (158.01 K): 102.27 ± 0.58 J/K/mol
- molar heat capacity (159.13 K): 103.18 ± 0.58 J/K/mol
- molar heat capacity (159.9 K): 103.68 ± 0.58 J/K/mol
- molar heat capacity (161.8 K): 105.09 ± 0.58 J/K/mol
- molar heat capacity (161.91 K): 105.26 ± 0.58 J/K/mol
- molar heat capacity (163.69 K): 106.59 ± 0.67 J/K/mol
- molar heat capacity (164.48 K): 107.17 ± 0.67 J/K/mol
- molar heat capacity (165.59 K): 108 ± 0.67 J/K/mol
- molar heat capacity (166.66 K): 108.92 ± 0.67 J/K/mol
- molar heat capacity (167.48 K): 109.5 ± 0.67 J/K/mol
- molar heat capacity (168.73 K): 110.58 ± 0.67 J/K/mol
- molar heat capacity (169.38 K): 111 ± 0.67 J/K/mol
- molar heat capacity (170.79 K): 112.25 ± 0.67 J/K/mol
- molar heat capacity (171.28 K): 112.58 ± 0.67 J/K/mol
- molar heat capacity (172.85 K): 113.91 ± 0.67 J/K/mol
- molar heat capacity (173.18 K): 114.16 ± 0.67 J/K/mol
- molar heat capacity (174.91 K): 115.65 ± 0.67 J/K/mol
- molar heat capacity (175.08 K): 115.74 ± 0.67 J/K/mol
- molar heat capacity (176.96 K): 117.4 ± 0.67 J/K/mol
- molar heat capacity (176.98 K): 117.32 ± 0.67 J/K/mol
- molar heat capacity (178.89 K): 119.06 ± 0.67 J/K/mol
- molar heat capacity (179.01 K): 119.23 ± 0.67 J/K/mol
- molar heat capacity (180.8 K): 120.73 ± 0.67 J/K/mol
- molar heat capacity (181.05 K): 120.98 ± 0.67 J/K/mol
- molar heat capacity (182.71 K): 122.39 ± 0.67 J/K/mol
- molar heat capacity (183.09 K): 122.8 ± 0.67 J/K/mol
- molar heat capacity (184.61 K): 124.05 ± 0.67 J/K/mol
- molar heat capacity (185.12 K): 124.63 ± 0.67 J/K/mol
- molar heat capacity (186.52 K): 125.8 ± 0.67 J/K/mol
- molar heat capacity (187.15 K): 126.46 ± 0.75 J/K/mol
- molar heat capacity (188.43 K): 127.63 ± 0.75 J/K/mol
- molar heat capacity (189.18 K): 128.38 ± 0.75 J/K/mol
- molar heat capacity (190.33 K): 129.46 ± 0.75 J/K/mol
- molar heat capacity (191.2 K): 130.37 ± 0.75 J/K/mol
- molar heat capacity (192.24 K): 131.37 ± 0.75 J/K/mol
- molar heat capacity (193.21 K): 132.53 ± 0.75 J/K/mol
- molar heat capacity (194.15 K): 133.36 ± 0.75 J/K/mol
- molar heat capacity (195.22 K): 134.61 ± 0.75 J/K/mol
